# Measured values published in ChEMBL document CHEMBL1201862, “PubChem BioAssay data set” (2004).
#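 These data come from cells grown in 96-well plates and exposed to compound for 48 hours at five concentrations. The concentration for 50% growth inhibition is given as GI50.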 Calls of active or inactive are those of the source. No stated cut-off is given here; in the data, active = GI50 up to about 1.1 µM and inactive = higher.
# Experiments:
# Assay in all cases: growth of human tumour cells (NCI), 48 h
# 786-0 = test system: 786-0
# A498 = test system: A498
# A549 = test system: A549
# ACHN = test system: ACHN
# CAKI-1 = test system: CAKI-1
# CCRF-CEM = test system: CCRF-CEM
# COLO 205 = test system: COLO 205
# DLD-1 = test system: DLD-1
# DMS-114 = test system: DMS-114
# DMS-273 = test system: DMS-273
# EKVX = test system: EKVX
# HCC 2998 = test system: HCC 2998
# HCT-116 = test system: HCT-116
# HCT-15 = test system: HCT-15
# HL-60 = test system: HL-60
# HOP-18 = test system: HOP-18
# HOP-62 = test system: HOP-62
# HOP-92 = test system: HOP-92
# HT-29 = test system: HT-29
# IGROV-1 = test system: IGROV-1
# K562 = test system: K562
# KM-20L2 = test system: KM-20L2
# KM12 = test system: KM12
# LOX IMVI = test system: LOX IMVI
# LXFL 529 = test system: LXFL 529
# M14 = test system: M14
# M19-MEL = test system: M19-MEL
# MOLT-4 = test system: MOLT-4
# Malme-3M = test system: Malme-3M
# NCI-H226 = test system: NCI-H226
# NCI-H23 = test system: NCI-H23
# NCI-H460 = test system: NCI-H460
# NCI-H522 = test system: NCI-H522
# OVCAR-3 = test system: OVCAR-3
# OVCAR-4 = test system: OVCAR-4
# OVCAR-5 = test system: OVCAR-5
# OVCAR-8 = test system: OVCAR-8
# RPMI-8226 = test system: RPMI-8226
# SF-268 = test system: SF-268
# SF-295 = test system: SF-295
# SF-539 = test system: SF-539
# SK-MEL-28 = test system: SK-MEL-28
# SK-MEL-2 = test system: SK-MEL-2
# SK-MEL-5 = test system: SK-MEL-5
# SK-OV-3 = test system: SK-OV-3
# SN12C = test system: SN12C
# SNB-19 = test system: SNB-19
# SNB-75 = test system: SNB-75
# SNB-78 = test system: SNB-78
# SR = test system: SR
# SW-620 = test system: SW-620
# TK-10 = test system: TK-10
# U-251 = test system: U-251
# UACC-257 = test system: UACC-257
# UACC-62 = test system: UACC-62
# UO-31 = test system: UO-31
structure (smiles),measurement,setting,value
O=C1[C@H]2ON(c3ccccc3)C(c3ccccc3Cl)[C@H]2C(=O)N1c1ccc(Cc2ccc(N3C(=O)[C@@H]4ON(c5ccccc5)C(c5ccccc5Cl)[C@@H]4C3=O)cc2)cc1 (stereo partly specified),GI50,786-0,> 100 µM (inactive)
same,GI50,A498,> 100 µM (inactive)
same,GI50,A549,> 100 µM (inactive)
same,GI50,ACHN,> 100 µM (inactive)
same,GI50,CAKI-1,> 100 µM (inactive)
same,GI50,CCRF-CEM,> 100 µM (inactive)
same,GI50,COLO 205,> 100 µM (inactive)
same,GI50,DLD-1,> 100 µM (inactive)
same,GI50,DMS-114,> 100 µM (inactive)
same,GI50,DMS-273,> 100 µM (inactive)
same,GI50,EKVX,> 100 µM (inactive)
same,GI50,HCC 2998,> 100 µM (inactive)
same,GI50,HCT-116,> 100 µM (inactive)
same,GI50,HCT-15,> 100 µM
same,GI50,HL-60,> 100 µM (inactive)
same,GI50,HOP-18,> 100 µM (inactive)
same,GI50,HOP-62,> 100 µM (inactive)
same,GI50,HOP-92,71 µM (inactive)
same,GI50,HT-29,> 100 µM (inactive)
same,GI50,IGROV-1,> 100 µM (inactive)
same,GI50,K562,> 100 µM (inactive)
same,GI50,KM-20L2,> 100 µM (inactive)
same,GI50,KM12,> 100 µM (inactive)
same,GI50,LOX IMVI,> 100 µM (inactive)
same,GI50,LXFL 529,> 100 µM (inactive)
same,GI50,M14,21.7 µM (inactive)
same,GI50,M19-MEL,> 100 µM (inactive)
same,GI50,MOLT-4,> 100 µM (inactive)
same,GI50,Malme-3M,> 100 µM (inactive)
same,GI50,NCI-H226,> 100 µM (inactive)
same,GI50,NCI-H23,> 100 µM (inactive)
same,GI50,NCI-H460,> 100 µM (inactive)
same,GI50,NCI-H522,> 100 µM (inactive)
same,GI50,OVCAR-3,> 100 µM (inactive)
same,GI50,OVCAR-4,> 100 µM (inactive)
same,GI50,OVCAR-5,> 100 µM (inactive)
same,GI50,OVCAR-8,> 100 µM (inactive)
same,GI50,RPMI-8226,> 100 µM (inactive)
same,GI50,SF-268,> 100 µM (inactive)
same,GI50,SF-295,> 100 µM (inactive)
same,GI50,SF-539,> 100 µM (inactive)
same,GI50,SK-MEL-28,> 100 µM (inactive)
same,GI50,SK-MEL-2,> 100 µM (inactive)
same,GI50,SK-MEL-5,71.3 µM (inactive)
same,GI50,SK-OV-3,> 100 µM (inactive)
same,GI50,SN12C,> 100 µM (inactive)
same,GI50,SNB-19,> 100 µM (inactive)
same,GI50,SNB-75,> 100 µM (inactive)
same,GI50,SNB-78,> 100 µM (inactive)
same,GI50,SR,> 100 µM (inactive)
same,GI50,SW-620,> 100 µM (inactive)
same,GI50,TK-10,> 100 µM (inactive)
same,GI50,U-251,> 100 µM (inactive)
same,GI50,UACC-257,> 100 µM (inactive)
same,GI50,UACC-62,> 100 µM (inactive)
same,GI50,UO-31,> 100 µM (inactive)
